≈ marks a conversion by molar mass, not a printed value. Read-outs that look alike come from different tables or passages of the source. Marks after values point to notes of the source that are not given here.
Key:
E. coli BW25113 = assay: MIC determination (microdilution, M07-A9); format: cell-based; conditions: E. coli BW25113
Protocol: (§1) MIC values were determined according to the ninth edition of the Approved Standard M07-A9. The test was carried out for six different bacterial strains (E. coli DSM 1116 (Gram-negative), E. coli BW25113 (Gram-negative), B. subtilis DSM 10 (Gram-positive), M. luteus DSM 1790 (Gram-positive), M. phlei DSM 750 (Gram-positive), S. typhimurium TA 100 (Gram-negative). First, 20 µl of glycerol stock of each strain was inoculated in 20 ml LB (Lennox) followed by incubation overnight at 37 °C, 200 r.p.m. The test inoculum was adjusted by the 0.5 McFarland Standard. Within 15 min of preparation, the adjusted inoculum suspension was diluted in MHBII so that each well contained approximately 5 × 10^5 c.f.u. ml^−1 in a final volume of 100 µl. Then, 95 µl of the inoculum was applied per well and 5 µl of the (diluted) albicidins was added. For dilutions, the dry powders were dissolved in dimethylsulfoxide (DMSO) with a concentration of 2.56 mg ml^−1, and the obtained stock solutions were further diluted in DMSO. Next, 5 µl of each antibiotic dilution was applied to the microdilution tray to reach final concentrations of 8 to 0.016 µg ml^−1. One row of each well plate served as a growth control without antibiotic and another row of the microdilution tray served as a sterility control (only MHBII media). The antimicrobial effect of the solvent was tested by adding 5 µl DMSO to several wells. Purity check and cell titre control were performed according to International Standard M07-A9 on Mueller–Hinton II Agar. Both microdilution trays and agar plates were incubated at 37 °C for 20 h.

M. luteus DSM1790 = assay: MIC determination (microdilution, M07-A9); format: cell-based
Protocol: as §1

S. typhimurium TA100 = assay: MIC determination (microdilution, M07-A9); format: cell-based
Protocol: as §1

M. phlei DSM750 = assay: MIC determination (microdilution, M07-A9); format: cell-based; conditions: Mycolicibacterium phlei
Protocol: as §1

E. coli DSM116 = assay: MIC determination (microdilution, M07-A9); format: cell-based
Protocol: as §1

B. subtilis DSM10 = assay: MIC determination (microdilution, M07-A9); format: cell-based; conditions: Bacillus subtilis
Protocol: as §1

[1] = tested on: selected Gram-negative and Gram-positive microorganisms; assay: MIC activity groups over all tested strains; format: cell-based; set-up: key: a: most potent; b: intermediate; least active; conditions: MIC panel
Protocol: as §1

WT E. coli gyrase = biological target: T1, WT E. coli gyrase (Escherichia coli, UniProt P0AES4+P0AES6); assay: biochemical; format: biochemical; conditions: WT gyrase 20 nM; in words
T1 construct: alternative cryo-EM approach involving full-length E. coli gyrase; 10-His (cleaved yes); Twin-Strep (cleaved yes); made in house
Protocol: For DNA gyrase supercoiling assays to characterize gyrase mutants, 15 µl reactions were set up containing 250 ng of relaxed DNA, E. coli gyrase supercoiling buffer (35 mM Tris–Cl pH 7.5, 24 mM KCl, 4 mM MgCl2, 2 mM DTT, 1.8 mM spermidine, 1 mM ATP, 6.0% (w/v) glycerol, and 0.1 mg ml^−1 BSA), gyrase subunits and inhibitors. Concentrations of enzyme and inhibitor are stated in the figure legends. Inhibitors were diluted in the following way to reduce the chance of precipitation: stock compound in 100% DMSO was diluted to 5 mM in 100% DMSO. This compound solution was diluted to 1 mM by stepwise addition of 1 µl of 50% DMSO with thorough mixing via pipetting after each addition. All subsequent dilutions up to 100 µM were performed in the same way using H2O. After this point, compounds were stable and could be diluted in the normal way. Reactions were incubated at 37 °C for 30 min before stopping with 15 µl chloroform:isoamyl alcohol (24:1 v/v) and 15 µl of STEB (40% (w/v) sucrose, 100 mM Tris–Cl pH 8, 10 mM EDTA, 0.5 mg ml^−1 bromophenol blue).
Cleavage assays were set up in the same way as supercoiling assays with some modifications. The concentration of enzyme was increased 4-fold relative to the supercoiling assay and reactions were incubated for 1 h before addition of 0.2% SDS and proteinase K (0.2 mg ml^−1) and further incubation at 37 °C for 30 min to trap cleavage complexes. Reactions were stopped in the same way as supercoiling assays.
Results were visualized by agarose gel electrophoresis: 1% agarose Tris-acetate-EDTA (TAE) gels were run without ethidium bromide (supercoiling) or with 10 µg ml^−1 ethidium bromide (cleavage) at 8 V cm^−1.
DNA cleavage gels were analysed using densitometry (ImageJ). Experiments were carried out in triplicate and expressed as mean ± s.d. Curves were fitted using OriginPro 2021 (Origin Lab) according to a modified Hill equation:1 y=cI+(cF−cI)[…]/(k^n+x^n) where y is the percentage of cleaved DNA, cI is the initial cleavage, cF is the final cleavage, k is the CC50 (the concentration of inhibitor that results in cleavage of 50% of DNA), n is a slope factor and x is the inhibitor concentration.

E. coli gyrase = biological target: T2, E. coli gyrase (Escherichia coli, UniProt P0AES4+P0AES6); assay: Gyrase cleavage of linear DNA fragments (Mu217 and others); format: biochemical; conditions: in words
T2 construct: alternative cryo-EM approach involving full-length E. coli gyrase; 10-His (cleaved yes); Twin-Strep (cleaved yes); made in house
Protocol: Mu217 DNA (25 nM) was incubated with 0.4 µM gyrase and indicated concentrations (1 or 10 µM) of diazirine-labelled albicidin (photo-Albi, φAlbi) in a volume of 20 µl (~70 ng DNA) at 37 °C for 30 min in gyrase cleavage buffer (see section 'Topoisomerase assays'). For CFX competition experiments, 30 µM CFX was added first, followed by the albicidin. Reactions were either irradiated with ultraviolet 365 nm (benchtop transilluminator) with cooling (ice) for 30 min or left on ice for 30 min (‘dark’). Then, 0.2% SDS and 0.2 mg ml^−1 proteinase K were added to both samples, which were incubated for another 30 min. Reactions were mixed with loading dye (STEB) and chloroform:isoamyl alcohol (24:1 v/v) before vortexing and centrifugation. The aqueous phase was loaded on 4–20% TBE (Tris–borate–EDTA) polyacrylamide gel (Thermo) and ran for 1 h at 150 V. DNA was visualized with SYBR Gold (Thermo) staining.
Extended Data Fig. 1 Length dependency of albicidin-mediated DNA cleavage. Position of cleaved DNA indicated by arrows and red dots. ATP and ADPNP were added as indicated, (----) stands for no nucleotide added. 20 nM gyrase, 1 µM albicidin and 25 nM DNA was used in each reaction.
Extended Data Fig. 5 Photocrosslinking of diazirine-labelled albicidin (photo-Albi) to the DNA. a. Structures of N-terminal photo-Albi and control compound. b. DNA cleavage assay with Mu217 fragment and indicated concentrations of compounds. The labelled DNA band appearing upon irradiation of a photo-compound when bound to the complex is marked by a yellow star. c. Ciprofloxacin competition experiment. Pre-incubation with excess CFX prevents albicidin binding and crosslinking. Details of the experiment are available in Methods section.

[2] = Escherichia coli, first value in cell (biological replicate), read-out: MIC
[3] = Micrococcus luteus, first value in cell (biological replicate), read-out: MIC
[4] = second value in cell (biological replicate)
[5] = Salmonella enterica, first value in cell (biological replicate), read-out: MIC
[6] = first value in cell (biological replicate)
[7] = E. coli DSM116, second value in cell (biological replicate)
[8] = Escherichia coli, E. coli DSM116, first value in cell (biological replicate), read-out: MIC

T2 sequence (P0AES4 whole entry, the tested form may be a part, one chain of several): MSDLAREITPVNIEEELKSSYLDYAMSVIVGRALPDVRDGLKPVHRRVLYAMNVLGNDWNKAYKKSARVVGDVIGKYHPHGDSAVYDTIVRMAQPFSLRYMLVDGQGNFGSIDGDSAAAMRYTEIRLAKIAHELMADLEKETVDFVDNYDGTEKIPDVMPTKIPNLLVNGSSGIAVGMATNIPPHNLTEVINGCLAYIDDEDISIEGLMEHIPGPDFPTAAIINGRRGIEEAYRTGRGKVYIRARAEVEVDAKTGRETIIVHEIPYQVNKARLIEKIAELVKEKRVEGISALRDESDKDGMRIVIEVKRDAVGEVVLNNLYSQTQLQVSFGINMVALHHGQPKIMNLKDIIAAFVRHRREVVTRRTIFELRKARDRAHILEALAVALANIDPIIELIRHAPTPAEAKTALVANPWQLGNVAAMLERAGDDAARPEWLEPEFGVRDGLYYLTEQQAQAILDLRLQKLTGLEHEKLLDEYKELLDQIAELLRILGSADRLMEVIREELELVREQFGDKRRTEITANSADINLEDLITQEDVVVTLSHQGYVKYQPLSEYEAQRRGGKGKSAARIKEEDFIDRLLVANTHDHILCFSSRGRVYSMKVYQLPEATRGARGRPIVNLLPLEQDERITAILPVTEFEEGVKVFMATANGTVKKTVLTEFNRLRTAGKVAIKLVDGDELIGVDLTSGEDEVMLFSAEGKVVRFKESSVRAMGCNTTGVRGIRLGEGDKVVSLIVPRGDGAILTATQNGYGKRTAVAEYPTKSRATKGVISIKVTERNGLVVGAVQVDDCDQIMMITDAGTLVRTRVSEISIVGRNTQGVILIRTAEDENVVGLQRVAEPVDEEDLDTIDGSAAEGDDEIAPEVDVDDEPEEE
T1 sequence (P0AES4 whole entry, one chain of several): as the sequence (P0AES4 whole entry, the tested form may be a part, one chain of several) above

SMILES | MIC (E. coli BW25113; [2]) [mg/L] | MIC (M. luteus DSM1790; [3]) [mg/L] | MIC (M. luteus DSM1790; [4]) | MIC (S. typhimurium TA100; [5]) [mg/L] | MIC (M. phlei DSM750; [6]) [mg/L] | MIC (M. phlei DSM750; [4]) [mg/L] | MIC (E. coli DSM116; [7]) | MIC (E. coli DSM116; [8]) [mg/L] | MIC (B. subtilis DSM10; [6]) [mg/L] | MIC (B. subtilis DSM10; [4]) [mg/L] | activity group (superscript letter) [1] | activity in a DNA cleavage assay relative to albicidin (WT E. coli gyrase) | MIC (E. coli BW25113; [4]) | MIC (S. typhimurium TA100; [4]) | MIC (E. coli DSM116; Escherichia coli, DSM116, E. coli DSM116, first value in cell (biological replicate), read-out: MIC) [mg/L] | MIC (E. coli DSM116; Escherichia coli, DSM116, E. coli DSM116, second value in cell (biological replicate), read-out: MIC) [mg/L] | activity against gyrase (E. coli gyrase)
COc1ccccc1NC(=O)c1ccc(NC(=O)[C@H](Cc2c[nH]nn2)NC(=O)c2ccc(NC(=O)c3ccc(C#N)cc3)cn2)cn1 [AE-1] | > 8 | > 8 | >8.0 >8.0 µg ml^−1 | > 8 | > 8 | > 8 | >8.0 >8.0 µg ml^−1 | > 8 | > 8 | > 8 | AE-1^c |  |  |  |  |  | 
COc1ccccc1NC(=O)c1ccc(NC(=O)[C@H](Cc2c[nH]nn2)NC(=O)c2ccc(NC(=O)c3ccc(C#N)cc3)cc2)cn1 [AE-2] | > 8 | > 8 | >8.0 >8.0 µg ml^−1 | > 8 | > 8 | > 8 | >8.0 >8.0 µg ml^−1 | > 8 | > 8 | > 8 | AE-2^c |  |  |  |  |  | 
COc1ccccc1NC(=O)c1ccc(NC(=O)[C@H](Cc2c[nH]nn2)NC(=O)c2ccc(NC(=O)/C(C)=C/c3ccc(O)cc3)cc2)cn1 [AE-3] | > 8 | > 8 | >8.0 >8.0 µg ml^−1 | > 8 | > 8 | > 8 | >8.0 >8.0 µg ml^−1 | > 8 | > 8 | > 8 | AE-3^c |  |  |  |  |  | 
CC(C)Oc1ccccc1NC(=O)c1ccc(NC(=O)[C@H](Cc2c[nH]nn2)NC(=O)c2ccc(NC(=O)c3ccc(C#N)cc3)cn2)cn1 [AE-4] | > 8 | > 8 | >8.0 >8.0 µg ml^−1 | > 8 | > 8 | > 8 | >8.0 >8.0 µg ml^−1 | > 8 | > 8 | > 8 | AE-4^c |  |  |  |  |  | 
COc1c(NC(=O)c2ccc(NC(=O)[C@H](Cc3c[nH]nn3)NC(=O)c3ccc(NC(=O)c4ccc(C#N)cc4)cc3)cn2)ccc(F)c1F [AE-5] | > 8 | > 8 | >8.0 >8.0 µg ml^−1 | > 8 | > 8 | > 8 | >8.0 >8.0 µg ml^−1 | > 8 | > 8 | > 8 | AE-5^c |  |  |  |  |  | 
COc1c(NC(=O)c2ccc(NC(=O)c3ccc(NC(=O)[C@H](Cc4c[nH]nn4)NC(=O)c4ccc(C#Cc5ccc(C#N)cc5)cc4)cn3)c(OC)c2O)ccc(C(=O)O)c1O [Alkyne–Albi] | < 0.016 | < 0.016 | <0.016 <0.016 µg ml^−1 | < 0.016 | 0.25 (≈ 0.299 µM) | 0.5 (≈ 0.598 µM) | <0.016 <0.016 µg ml^−1 | < 0.016 | 0.063 (≈ 0.0754 µM) | 0.125 (≈ 0.15 µM) | Alkyne–Albi^a | as active as albicidin |  |  |  |  | 
COc1c(NC(=O)c2ccc(NC(=O)c3ccc(NC(=O)[C@H](Cc4c[nH]nn4)NC(=O)c4ccc(NC(=O)/C(C)=C/c5ccc(O)cc5)cc4)cn3)c(OC)c2O)ccc(C(=O)O)c1O [Azahis–Albi] | < 0.016 | 0.031 (≈ 0.035 µM) |  | < 0.016 | 0.125 (≈ 0.141 µM) | 0.5 (≈ 0.564 µM) |  |  | 0.031 (≈ 0.035 µM) | 0.063 (≈ 0.0711 µM) |  |  | <0.016 <0.016 µg ml^−1 | <0.016 <0.016 µg ml^−1 | < 0.016 | < 0.016 | 
C#CC[C@H](NC(=O)c1ccc(NC(=O)c2ccc(C3(C(F)(F)F)N=N3)cc2)cc1)C(=O)Nc1ccc(C(=O)Nc2ccc(C(=O)Nc3ccc(C(=O)O)c(O)c3OC)c(O)c2OC)nc1 [photo-Albi] |  |  |  |  |  |  |  |  |  |  |  |  |  |  |  |  | active against gyrase
